Laboratory results published in paper PMC10761119, “Phosphorylation-state dependent intraneuronal sorting of Aβ differentially impairs autophagy and the endo-lysosomal system” (Autophagy, 2023).

Key:
[1] = tested on: CTSD and CTSE in SH-SY5Y cells; experiment: CTSD and CTSE activity assay with fluorogenic substrate; format: cell-based, human; conditions: Aβ 1 µM, 24 h, per µg total cellular protein, compared to control cells
Description: Cells were seeded in a 96-well plate (12000 cells/well, D1) and treated with different Aβ variants (primary cortical neurons, DIV14–500 nM, 4 h; SH-SY5Y cells, D3–1 μM, 24 h) in neurobasal, FCS-/PS- media. After the treatment, the supernatant was discarded, and cells were washed with PBS once. Cells were lysed by solubilizing the plasma membrane and intracellular membranes by adding 50 μL of 200 μg/mL digitonin in acetate buffer to the wells followed by incubation on ice for 15 min. Additionally, 50 μL of the Omnicathepsin D & E fluorogenic substrate (Enzo Life sciences, BML-P145) in sodium acetate buffer was added to the lysates in the wells for a final concentration of 30 μM of substrate and 10 mM DTT. Plate was incubated for 25 min at RT and the reaction was stopped by addition of 10 µl of ethanol. The relative amount of substrate cleavage in each well was computed using multiplate reader at λEx 380 nm and λEm 460 nm. Values were normalized and represented as fold-change with respect to control cells. Graphs in Figure 7G and S7F represent data from 3 independent experiments (n = 9).

SH-SY5Y cells = experiment: Immunocytochemistry colocalization of Aβ with LC3 and LAMP2; format: cell-based, human; conditions: Aβ 1 µM, 24 h, n = 6, N = 3
Description: Cells were cultured on glass coverslips and treated similarly as mentioned above. After treatment, cells were subsequently washed and fixed with 4% paraformaldehyde in PBS for 15 min. […] Incubation with primary antibodies (respective dilutions in blocking buffer) was performed overnight at 4°C. Next day, coverslips were washed and incubated with respective secondary antibodies (respective dilutions in blocking buffer) for 1 h at RT. Removal of the secondary antibody solution was followed by washes with PBS (thrice) and distilled water (once) and coverslips were mounted on the slides using ImmuMount (ThermoFisher Scientific - Shandon EprediaTM, 9990412). […] Quantification of the number of autophagic compartments (Figure S6B) was done manually using a 10 μm^2 ROI grids, placed in the cytosolic region of the individual cells using the “rule of L” counting method. […] All images were processed and analyzed using Fiji ImageJ software. […] Distance from the plaque core (Figure 1B) was measured using the concentric circles plugin module. Fluorescence intensity of the green channel (Figure S3A-B), and the number of neurons positive for Aβ signals (Figure S3-D) were quantified using the processing module of Keyence software. […] Intensity of green and red channel for a particular ROI was calculated and ratios of the individual values were computed (Figure 6B and S7A). […]

[2] = cited from earlier work

Substance | Activity of lysosomal CTSD and CTSE [1] | Accumulation in LC3-positive autophagosomal structures (SH-SY5Y cells) | Colocalization with LAMP2 (SH-SY5Y cells) | Assemblies formed (effect of Ser26 phosphorylation) [2]
amyloid-β phosphorylated at serine residue 8 [p-Ser8Aβ] | no significant effect | preferential accumulation |  | 
amyloid-β phosphorylated at serine residue 26 [p-Ser26Aβ] | increased activity |  | predominant colocalization | soluble oligomeric assemblies, rather than fibrillar assemblies
